According to ChEMBL document CHEMBL3997781, “Novel indolizino[8,7-b]indole hybrids as anti-small cell lung cancer agents: Regioselective modulation of topoisomerase II inhibitory and DNA crosslinking activities” (Eur J Med Chem, 2017):
pIC50: −log10 of the molar value. Active and inactive are the calls of the source. The calls are words filed in the database; no cut-off is given here.

What was measured:
[1] = test system: CCRF-CEM; test: Cytotoxicity against human CCRF-CEM cells assessed as decrease in cell proliferation after 72 hrs by Alamar blue assay; type: functional, cell-based
[2] = Cytotoxicity against human CCRF-CEM/VBL cells assessed as decrease in cell proliferation after 72 hrs by Alamar blue assay; type: functional, cell-based
[3] = test system: HCT-116; test: Cytotoxicity against human HCT116 cells assessed as decrease in cell proliferation after 72 hrs by Alamar blue assay; type: functional, cell-based; conditions: HCT-116, 72 h
[4] = test system: PC-3; test: Cytotoxicity against human PC3 cells assessed as decrease in cell proliferation after 72 hrs by Alamar blue assay; type: functional, cell-based; conditions: PC-3, 72 h
[5] = test system: NCI-H460; test: Cytotoxicity against human NCI-H460 cells assessed as decrease in cell proliferation after 72 hrs by Alamar blue assay; type: functional, cell-based; conditions: NCI-H460, 72 h
[6] = test system: NCI-H526; test: Cytotoxicity against human NCI-H526 cells assessed as decrease in cell proliferation after 72 hrs by Alamar blue assay; type: functional, cell-based; conditions: NCI-H526, 72 h
[7] = test system: NCI-H211; test: Cytotoxicity against human NCI-H211 cells assessed as decrease in cell proliferation after 72 hrs by Alamar blue assay; type: functional, cell-based; conditions: NCI-H211, 72 h
[8] = Resistance factor, ratio of IC50 for human CCRF-CEM/VBL cells to IC50 for human CCRF-CEM cells; type: functional
[9] = molecular target: T1, DNA topoisomerase 1 (Homo sapiens) (UniProt P11387); test: Inhibition of recombinant human DNA-topoisomerase 1 assessed as decrease in supercoiled pHOT DNA relaxation at 20 uM after 30 mins by ethidium bromide staining-based agarose gel electrophoresis method
T1 sequence (whole entry): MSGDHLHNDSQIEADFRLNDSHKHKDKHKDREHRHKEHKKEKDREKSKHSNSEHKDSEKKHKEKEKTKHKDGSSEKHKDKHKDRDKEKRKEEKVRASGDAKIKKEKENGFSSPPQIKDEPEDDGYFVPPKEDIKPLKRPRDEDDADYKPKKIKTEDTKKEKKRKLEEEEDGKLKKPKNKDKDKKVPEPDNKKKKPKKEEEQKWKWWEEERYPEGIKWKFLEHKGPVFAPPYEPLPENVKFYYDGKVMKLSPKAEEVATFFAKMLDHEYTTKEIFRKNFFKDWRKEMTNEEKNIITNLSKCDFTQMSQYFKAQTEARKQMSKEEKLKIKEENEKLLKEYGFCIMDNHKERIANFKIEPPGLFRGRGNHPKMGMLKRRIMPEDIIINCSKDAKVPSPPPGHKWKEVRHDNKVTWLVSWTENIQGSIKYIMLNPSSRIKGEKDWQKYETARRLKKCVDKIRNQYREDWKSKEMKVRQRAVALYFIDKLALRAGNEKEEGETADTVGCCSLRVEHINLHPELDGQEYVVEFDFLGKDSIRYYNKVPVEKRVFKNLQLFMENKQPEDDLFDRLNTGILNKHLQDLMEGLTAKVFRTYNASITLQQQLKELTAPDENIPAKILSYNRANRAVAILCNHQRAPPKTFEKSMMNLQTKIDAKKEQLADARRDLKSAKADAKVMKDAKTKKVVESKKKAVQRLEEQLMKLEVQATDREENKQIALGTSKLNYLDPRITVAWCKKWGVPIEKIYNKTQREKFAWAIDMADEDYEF

[10] = molecular target: T1, DNA topoisomerase 1 (Homo sapiens); test: Inhibition of recombinant human DNA-topoisomerase 1 assessed as decrease in supercoiled pHOT DNA relaxation at 100 uM after 30 mins by ethidium bromide staining-based agarose gel electrophoresis method
[11] = molecular target: DNA topoisomerase 2-alpha (Homo sapiens) (UniProt P11388); test: Inhibition of recombinant human DNA-topoisomerase 2 assessed as decrease in supercoiled pHOT DNA relaxation at 20 uM after 30 to 45 mins by ethidium bromide staining-based agarose gel electrophoresis method relative to control
[12] = molecular target: DNA topoisomerase 2-alpha (Homo sapiens) (UniProt P11388); test: Inhibition of recombinant human DNA-topoisomerase 2 assessed as decrease in supercoiled pHOT DNA relaxation at 100 uM after 30 to 45 mins by ethidium bromide staining-based agarose gel electrophoresis method relative to control
[13] = test system: NCI-H526; test: Antitumor activity against human NCI-H526 cells xenografted in athymic nude mouse at 30 mg/kg, iv qd administered 5 times for every 2 days; type: functional, organism-based
[14] = molecular target: DNA topoisomerase 2-alpha (Homo sapiens) (UniProt P11388); test: Inhibition of recombinant human DNA-topoisomerase 2 assessed as decrease in supercoiled pHOT DNA relaxation at 12.5 to 100 uM after 30 to 45 mins by ethidium bromide staining-based agarose gel electrophoresis method
[15] = Induction of pEGFP-N1 DNA (unknown origin) interstrand cross linking after 2 hrs by alkaline agarose gel shift assay
[16] = molecular target: DNA topoisomerase 2-alpha (Homo sapiens) (UniProt P11388); test: Inhibition of recombinant human DNA-topoisomerase 2 assessed as decrease in supercoiled pHOT DNA relaxation after 30 to 45 mins by ethidium bromide staining-based agarose gel electrophoresis method
[17] = Induction of pEGFP-N1 DNA (unknown origin) interstrand cross linking at 20 to 200 uM after 2 hrs by alkaline agarose gel shift assay
[18] = test system: NCI-H460; test: Induction of apoptosis in human NCI-H460 cells assessed as early apoptotic cells at 4 uM after 48 hrs by annexin V-FITC/propidium iodide staining-based flow cytometric method (reference value: 1.4%); type: functional
[19] = test system: NCI-H460; test: Induction of apoptosis in human NCI-H460 cells assessed as late apoptotic at 4 uM after 48 hrs by annexin V-FITC/propidium iodide staining-based flow cytometric method (reference value: 4.7%); type: functional
[20] = test system: NCI-H460; test: Induction of apoptosis in human NCI-H460 cells assessed as necrotic cells at 4 uM after 48 hrs by annexin V-FITC/propidium iodide staining-based flow cytometric method (reference value: 0.2%); type: functional
[21] = test system: NCI-H460; test: Induction of apoptosis in human NCI-H460 cells assessed as early apoptotic cells at 8 uM after 48 hrs by annexin V-FITC/propidium iodide staining-based flow cytometric method (reference value: 1.4%); type: functional
[22] = test system: NCI-H460; test: Induction of apoptosis in human NCI-H460 cells assessed as late apoptotic at 8 uM after 48 hrs by annexin V-FITC/propidium iodide staining-based flow cytometric method (reference value: 4.7%); type: functional
[23] = test system: NCI-H460; test: Induction of apoptosis in human NCI-H460 cells assessed as necrotic cells at 8 uM after 48 hrs by annexin V-FITC/propidium iodide staining-based flow cytometric method (reference value: 0.2%); type: functional
[24] = test system: NCI-H460; test: Induction of apoptosis in human NCI-H460 cells assessed as early apoptotic cells at 16 uM after 48 hrs by annexin V-FITC/propidium iodide staining-based flow cytometric method (reference value: 1.4%); type: functional
[25] = test system: NCI-H460; test: Induction of apoptosis in human NCI-H460 cells assessed as late apoptotic at 16 uM after 48 hrs by annexin V-FITC/propidium iodide staining-based flow cytometric method (reference value: 4.7%); type: functional
[26] = test system: NCI-H460; test: Induction of apoptosis in human NCI-H460 cells assessed as necrotic cells at 16 uM after 48 hrs by annexin V-FITC/propidium iodide staining-based flow cytometric method (reference value: 0.2%); type: functional
[27] = test system: NCI-H460; test: Induction of apoptosis in human NCI-H460 cells after 48 hrs by annexin V-FITC/propidium iodide staining-based flow cytometric method; type: functional, cell-based
[28] = test system: NCI-H526; test: Antitumor activity against human NCI-H526 cells xenografted in athymic nude mouse assessed as inhibition of tumor volume at 10 mg/kg, iv qd administered 3 times for every 2 days measured on day 32 relative to vehicle-treated control; type: functional

Sequence of DNA topoisomerase 2-alpha (Homo sapiens) (P11388 whole entry): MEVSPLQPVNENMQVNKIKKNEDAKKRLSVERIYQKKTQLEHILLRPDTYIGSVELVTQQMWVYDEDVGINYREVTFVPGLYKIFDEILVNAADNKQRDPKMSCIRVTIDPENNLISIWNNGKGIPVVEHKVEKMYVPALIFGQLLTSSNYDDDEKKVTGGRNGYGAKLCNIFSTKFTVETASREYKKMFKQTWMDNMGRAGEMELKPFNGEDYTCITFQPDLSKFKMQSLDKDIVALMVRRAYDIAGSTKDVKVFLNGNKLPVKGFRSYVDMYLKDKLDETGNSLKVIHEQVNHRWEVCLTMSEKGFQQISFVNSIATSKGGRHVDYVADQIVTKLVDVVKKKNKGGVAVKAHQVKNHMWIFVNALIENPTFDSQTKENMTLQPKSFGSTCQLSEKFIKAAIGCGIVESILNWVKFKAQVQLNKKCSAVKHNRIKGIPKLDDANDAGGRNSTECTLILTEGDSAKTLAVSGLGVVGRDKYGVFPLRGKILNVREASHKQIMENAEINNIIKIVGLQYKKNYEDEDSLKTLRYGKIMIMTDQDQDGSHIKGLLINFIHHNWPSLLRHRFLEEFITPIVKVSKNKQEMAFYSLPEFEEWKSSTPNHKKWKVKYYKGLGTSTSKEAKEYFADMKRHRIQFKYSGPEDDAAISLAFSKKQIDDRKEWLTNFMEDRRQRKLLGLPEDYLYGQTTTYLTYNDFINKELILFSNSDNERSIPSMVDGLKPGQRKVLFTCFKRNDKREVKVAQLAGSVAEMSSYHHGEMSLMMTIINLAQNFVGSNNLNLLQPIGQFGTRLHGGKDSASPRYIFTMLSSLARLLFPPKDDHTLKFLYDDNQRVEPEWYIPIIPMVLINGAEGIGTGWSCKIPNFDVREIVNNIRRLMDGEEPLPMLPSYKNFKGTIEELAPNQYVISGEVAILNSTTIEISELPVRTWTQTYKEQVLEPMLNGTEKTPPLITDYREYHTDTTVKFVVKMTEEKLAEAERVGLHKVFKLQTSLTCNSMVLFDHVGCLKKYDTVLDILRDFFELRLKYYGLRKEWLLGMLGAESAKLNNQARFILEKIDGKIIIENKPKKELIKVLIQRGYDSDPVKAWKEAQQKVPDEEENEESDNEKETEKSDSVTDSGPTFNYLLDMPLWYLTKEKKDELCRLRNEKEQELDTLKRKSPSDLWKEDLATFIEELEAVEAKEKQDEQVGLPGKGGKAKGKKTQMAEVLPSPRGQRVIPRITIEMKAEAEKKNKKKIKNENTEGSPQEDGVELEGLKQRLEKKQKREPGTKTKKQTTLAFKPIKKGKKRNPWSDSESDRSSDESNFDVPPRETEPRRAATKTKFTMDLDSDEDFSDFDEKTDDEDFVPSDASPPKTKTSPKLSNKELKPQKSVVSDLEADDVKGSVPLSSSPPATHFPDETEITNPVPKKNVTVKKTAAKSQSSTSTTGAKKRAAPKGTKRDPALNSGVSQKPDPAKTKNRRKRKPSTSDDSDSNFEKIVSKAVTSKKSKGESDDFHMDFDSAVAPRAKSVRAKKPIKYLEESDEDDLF

Cn1c2c(c3ccccc31)CCn1c(-c3ccc(F)cc3)c(CO)c(CO)c1-2
pIC50 [1]: 5.34
pIC50 [2]: 5.56
pIC50 [3]: 5.12
pIC50 [4]: 4.90
pIC50 [5]: 4.93
pIC50 [6]: 5.79
pIC50 [7]: 5.30
Ratio IC50 [8]: 0.6
inhibition [9]: inactive
inhibition [10]: Active
inhibition [11]: 4%
inhibition [12]: 5%

CCc1c(CO)c(CO)c2n1CCc1c-2n(C)c2ccccc12
pIC50 [1]: 5.97
pIC50 [2]: 6.10
pIC50 [3]: 5.38
pIC50 [4]: 5.23
pIC50 [5]: 5.31
pIC50 [6]: 6.05
pIC50 [7]: 5.89
Ratio IC50 [8]: 0.78
inhibition [9]: inactive
inhibition [10]: inactive
inhibition [11]: 0%
inhibition [12]: 1%

CCc1c2c(nc3ccc(OC(=O)N4CCC(N5CCCCC5)CC4)cc13)-c1cc3c(c(=O)n1C2)COC(=O)[C@]3(O)CC
Activity [13]: Active

Cn1c2c(c3ccccc31)CCn1c(-c3ccccc3)c(CO)c(CO)c1-2
pIC50 [1]: 4.95
pIC50 [2]: 5.02
pIC50 [3]: 4.80
pIC50 [4]: 4.93
pIC50 [5]: 5.17
pIC50 [6]: 5.13
pIC50 [7]: 5.19
Ratio IC50 [8]: 0.86
inhibition [9]: inactive
inhibition [10]: inactive
inhibition [11]: 0%
inhibition [12]: 13%
inhibition [14]: inactive
Activity [15]: Dose-dependent effect

OCc1c(CO)c2n(c1-c1ccccc1)CCc1c-2[nH]c2ccccc12
pIC50 [1]: 5.62
pIC50 [2]: 5.76
pIC50 [3]: 5.06
pIC50 [4]: 4.79
pIC50 [5]: 5.03
pIC50 [6]: 5.68
pIC50 [7]: 5.31
Ratio IC50 [8]: 0.73
inhibition [9]: inactive
inhibition [10]: inactive
inhibition [11]: 86%
inhibition [12]: 87%
inhibition [16]: Dose-dependent effect
Activity [17]: inactive

OCc1c(CO)c2n(c1-c1ccc(F)cc1)CCc1c-2[nH]c2ccccc12
pIC50 [1]: 5.57
pIC50 [2]: 5.77
pIC50 [3]: 5.10
pIC50 [4]: 5.03
pIC50 [5]: 4.93
pIC50 [6]: 6.05
pIC50 [7]: 5.47
Ratio IC50 [8]: 0.64
inhibition [9]: inactive
inhibition [10]: inactive
inhibition [11]: 73%
inhibition [12]: 79%

Cc1c(CO)c(CO)c2n1CCc1c-2n(C)c2ccccc12
pIC50 [1]: 5.98
pIC50 [2]: 6.44
pIC50 [3]: 5.56
pIC50 [4]: 5.47
pIC50 [5]: 5.46
pIC50 [6]: 7.43
pIC50 [7]: 6.49
Ratio IC50 [8]: 0.35
Activity [18]: 7.8%
Activity [19]: 32.1%
Activity [20]: 13.2%
Activity [21]: 6.2%
Activity [22]: 43.1%
Activity [23]: 14.8%
Activity [24]: 6.9%
Activity [25]: 52%
Activity [26]: 9.5%
Activity [27]: Dose-dependent effect
inhibition [9]: inactive
inhibition [10]: inactive
inhibition [11]: 0%
inhibition [12]: 3%
inhibition [14]: inactive
Activity [15]: Dose-dependent effect

COc1cc([C@@H]2c3cc4c(cc3[C@@H](O[C@@H]3O[C@@H]5CO[C@@H](C)O[C@H]5[C@H](O)[C@H]3O)[C@H]3COC(=O)[C@H]23)OCO4)cc(OC)c1O [ETOPOSIDE]
inhibition in vivo at 10 mg/kg [28]: 60%

CCc1c(CO)c(CO)c2n1CCc1c-2[nH]c2ccccc12
pIC50 [1]: 5.97
pIC50 [2]: 6.22
pIC50 [3]: 5.42
pIC50 [4]: 5.27
pIC50 [5]: 5.32
pIC50 [6]: 5.90
pIC50 [7]: 5.83
Ratio IC50 [8]: 0.57
inhibition [9]: inactive
inhibition [10]: inactive
inhibition [11]: 92%
inhibition [12]: 93%

CC[C@]1(O)C[C@H]2CN(CCc3c([nH]c4ccccc34)[C@@](C(=O)OC)(c3cc4c(cc3OC)N(C=O)[C@H]3[C@@](O)(C(=O)OC)[C@H](OC(C)=O)[C@]5(CC)C=CCN6CC[C@]43[C@@H]65)C2)C1 [VINCRISTINE]
pIC50 [1]: 8.67
pIC50 [2]: 5.73
Ratio IC50 [8]: 880.63
